Type in all cases: cell-based
In one test the test system is Acinetobacter baumannii. As for the experimental part: (§1) The strains used for susceptibility testing include both culture collection strains and clinical isolates are recited below. Their known relevant genotypes and origin have been described by Khan et al. supra.
(§2) The MICs of alginate oligomers, bacitracin and alginate oligomer conjugates thereof were determined for isolates V2, V3, VS, V19, E68 and E75 using the broth microdilution method in accordance with standard guidelines (CLSI 2012). Test organisms were suspended in Mueller Hinton cation adjusted (MH) broth (100 μL, 1-5×10^4 CFU/mL) and incubated in 96-well microtitre plates in serial two-fold dilutions of the test compounds. The MIC was defined as the lowest concentration of test compound that produced no visible growth after 16-20 hours.

The subject of a further test is Escherichia coli. As for the experimental part: as §1, §2
The test system of another test is Klebsiella pneumoniae. How it is done:
as §1, §2

Test [1] concerns Pseudomonas aeruginosa (301), MDR-PSA isolate. As for the experimental part:
as §1, §2

A further test relates to V33. As to the kind of experiment: MIC, broth microdilution (CLSI 2012), isolate V33. The settings on record: Batch 1; MH broth, 16-20 hours. (In general: Broth dilution looks for growth in wells or tubes with falling amounts of substance.)
Test [2] concerns Staphylococcus aureus (Gram positive). Description: Antimicrobial activity (MIC) against Gram positive species. As to conditions: summary in words. How it is done:
as §1, §2

The test system of test [3] is Gram negative species tested (Pseudomonas aeruginosa, Klebsiella pneumonia, Escherichia coli and Acinetobacter baumannii). Description: Antimicrobial activity (MIC) against Gram negative species. The settings on record: summary in words. As for the experimental part: as §1, §2

SMILES strings stand for the structures. In brackets after ≈: the same amount, converted by molar mass. Where two headings read alike, the source gives them in different places. Where a SMILES comes first, the peptide text is derived from it. Bridges are numbered along the chain shown (N, C = ends). [ ]: non-standard residue; d: D form. The star is where a group is joined. Ileψ(thiazoline)Cys = CC[C@H](C)[C@H](N)C1=N[C@H](C(=O)*)CS1; dOrn = NCCC[C@@H](N)C(=O)O

In the case of `CC[C@H](C)[C@H](N)C1=N[C@H](C(=O)N[C@@H](CC(C)C)C(=O)N[C@H](CCC(=O)O)C(=O)N[C@H](C(=O)N[C@H]2CCCCNC(=O)[C@H](CC(N)=O)NC(=O)[C@@H](CC(=O)O)NC(=O)[C@H](Cc3cnc[nH]3)NC(=O)[C@@H](Cc3ccccc3)NC(=O)[C@H]([C@@H](C)CC)NC(=O)[C@@H](CCCN)NC2=O)[C@@H](C)CC)CS1` [Bacitracin, bacitracin] ({Ileψ(thiazoline)Cys}-L[dE]IK[dOrn]I[dF]H[dD]N; lactam 4-C), the “MIC V19” value was 640 µg/mL (≈ 450 µM) against Acinetobacter baumannii and more than 128 µg/mL in the test with Acinetobacter baumannii (Batch 1, MH broth, 16-20 hours). The “MIC V5” value with Escherichia coli was 640 µg/mL (≈ 450 µM); against Escherichia coli (Batch 1, MH broth, 16-20 hours), more than 128 µg/mL. Also, the “MIC V3” value against Klebsiella pneumoniae is more than 8192 µg/mL; in the test on Klebsiella pneumoniae (Batch 1, MH broth, 16-20 hours), more than 128 µg/mL. Further, the “MIC V2” value in test [1] (301), MDR-PSA isolate) is more than 8192 µg/mL; in test [1] (Batch 1, MH broth, 16-20 hours), more than 128 µg/mL. In the test with V33, the “MIC V33” value was more than 128 µg/mL. In test [2], the “antimicrobial activity against Staphylococcus aureus (Gram positive)” value is “high antimicrobial activity”. Moreover, the “antimicrobial activity against the Gram negative species tested” value in test [3] is recorded as “but not the Gram negative species tested”.

Values taken from patent US20230139922A1, “BACITRACIN-ALGINATE OLIGOMER CONJUGATES” (AlgiPharma AS, priority 2016, published 2023).
